Source: ChEMBL document CHEMBL3217491, “Design, synthesis and biological evaluation of imidazopyridine/pyrimidine-chalcone derivatives as potential anticancer agents” (2010)
Activity calls are given as the source filed them. The rule behind the calls is not given here.

What was measured:
[1] = Growth inhibition of human SF539 cells after 48 hrs by SRB assay; type: functional; conditions: SF-539, 48 h
CCRF-CEM = test: Growth inhibition of human CCRF-CEM cells after 48 hrs by SRB assay; type: functional
MCF7 [2] = test: Induction of apoptosis in human MCF7 cells assessed as decrease in procaspase 9 level at 4 uM by Western blot analysis relative to control; type: functional, cell-based
MCF7 [3] = test: Growth inhibition of human MCF7 cells assessed as cell viability at 4 uM after 24 hrs by MTT assay; type: functional, cell-based
[4] = Growth inhibition of human OVCAR5 cells after 48 hrs by SRB assay; type: functional; conditions: OVCAR-5, 48 h
MCF7 [5] = test: Induction of cell cycle arrestin human MCF7 cells assessed as downregulation of cyclin D1 protein expression at 4 uM by Western blot analysis; type: functional, cell-based
[6] = Growth inhibition of human HCC2998 cells after 48 hrs by SRB assay; type: functional; conditions: HCC 2998, 48 h
T47D = test: Growth inhibition of human T47D cells after 48 hrs by SRB assay; type: functional
MCF7 [7] = test: Cell cycle arrest in human MCF7 cells assessed as accumulation at S phase at 4 uM after 24 hrs by propidium iodide staining-based flow cytometry (reference value: 20.17%); type: functional
CAKI-1 = test: Growth inhibition of human Caki1 cells after 48 hrs by SRB assay; type: functional; conditions: CAKI-1, 48 h
SR = test: Growth inhibition of human SR cells after 48 hrs by SRB assay; type: functional
DU-145 = test: Growth inhibition of human DU145 cells after 48 hrs by SRB assay; type: functional; conditions: DU-145, 48 h
SNB-19 = test: Growth inhibition of human SNB19 cells after 48 hrs by SRB assay; type: functional; conditions: SNB-19, 48 h
SN12C = test: Growth inhibition of human SN12C cells after 48 hrs by SRB assay; type: functional
Malme-3M = test: Growth inhibition of human MALME-3M cells after 48 hrs by SRB assay; type: functional
MCF7 [8] = test: Induction of apoptosis in human MCF7 cells expressing P21 promoter -145/+8 with luciferase gene assessed as upregulation of p21 protein expression at 4 uM by Western blot analysis relative to control; type: functional, cell-based
HOP-62 = test: Growth inhibition of human HOP62 cells after 48 hrs by SRB assay; type: functional; conditions: HOP-62, 48 h
K562 = test: Growth inhibition of human K562 cells after 48 hrs by SRB assay; type: functional; conditions: K562, 48 h
MDA-MB-468 = test: Growth inhibition of human MDA-MB-468 cells after 48 hrs by SRB assay; type: functional; conditions: MDA-MB-468, 48 h
[9] = Growth inhibition of human EKVX cells after 48 hrs by SRB assay; type: functional
[10] = Growth inhibition of human SF295 cells after 48 hrs by SRB assay; type: functional; conditions: SF-295, 48 h
SK-OV-3 = test: Growth inhibition of human SKOV3 cells after 48 hrs by SRB assay; type: functional; conditions: SK-OV-3, 48 h
IGROV-1 = test: Growth inhibition of human IGROV1 cells after 48 hrs by SRB assay; type: functional; conditions: IGROV-1, 48 h
TK-10 = test: Growth inhibition of human TK10 cells after 48 hrs by SRB assay; type: functional; conditions: TK-10, 48 h
MCF7 [11] = test: Induction of cell cycle arrestin human MCF7 cells assessed as downregulation of cyclin E protein expression at 4 uM by Western blot analysis; type: functional, cell-based
[12] = Growth inhibition of human LOXIMVI cells after 48 hrs by SRB assay; type: functional; conditions: LOX IMVI
ACHN = test: Growth inhibition of human ACHN cells after 48 hrs by SRB assay; type: functional
COLO 205 = test: Growth inhibition of human COLO205 cells after 48 hrs by SRB assay; type: functional; conditions: COLO 205, 48 h
SK-MEL-2 = test: Growth inhibition of human SK-MEL-2 cells after 48 hrs by SRB assay; type: functional; conditions: SK-MEL-2, 48 h
[13] = Growth inhibition of human OVCAR8 cells after 48 hrs by SRB assay; type: functional; conditions: OVCAR-8, 48 h
NCI-H23 = test: Growth inhibition of human NCI-H23 cells after 48 hrs by SRB assay; type: functional; conditions: NCI-H23, 48 h
MDA-MB-231 = test: Growth inhibition of human MDA-MB-231 cells after 48 hrs by SRB assay; type: functional; conditions: MDA-MB-231, 48 h
MCF7 [14] = test: Induction of apoptosis in human MCF7 cells assessed as increase in TNFR1 protein level at 4 uM by Western blot analysis relative to control; type: functional, cell-based
[15] = Growth inhibition of human UACC62 cells after 48 hrs by SRB assay; type: functional; conditions: UACC-62, 48 h
SK-MEL-5 = test: Growth inhibition of human SK-MEL-5 cells after 48 hrs by SRB assay; type: functional; conditions: SK-MEL-5, 48 h
PC-3 = test: Growth inhibition of human PC3 cells after 48 hrs by SRB assay; type: functional; conditions: PC-3, 48 h
MDA-MB-435 = test: Growth inhibition of human MDA-MB-435 cells after 48 hrs by SRB assay; type: functional; conditions: MDA-MB-435, 48 h
HL-60(TB) = test: Growth inhibition of human HL-60(TB) cells after 48 hrs by SRB assay; type: functional; conditions: HL-60, 48 h
M14 = test: Growth inhibition of human M14 cells after 48 hrs by SRB assay; type: functional; conditions: M14, 48 h
MCF7 [16] = test: Induction of cell cycle arrestin human MCF7 cells assessed as downregulation of cyclin A protein expression at 4 uM by Western blot analysis; type: functional, cell-based
SF-268 = test: Growth inhibition of human SF268 cells after 48 hrs by SRB assay; type: functional; conditions: SF-268, 48 h
[17] = Growth inhibition of human HCT15 cells after 48 hrs by SRB assay; type: functional; conditions: HCT-15, 48 h
[18] = Growth inhibition of human OVCAR4 cells after 48 hrs by SRB assay; type: functional; conditions: OVCAR-4, 48 h
[19] = Growth inhibition of human MOLT4 cells after 48 hrs by SRB assay; type: functional; conditions: MOLT-4, 48 h
MCF7 [20] = test: Induction of cell cycle arrestin human MCF7 cells assessed as downregulation of CDK2 protein expression at 4 uM by Western blot analysis; type: functional, cell-based
HT-29 = test: Growth inhibition of human HT-29 cells after 48 hrs by SRB assay; type: functional; conditions: HT-29, 48 h
MCF7 [21] = test: Induction of apoptosis in human MCF7 cells assessed as upregulation of p27 protein expression at 4 uM by Western blot analysis relative to control; type: functional, cell-based
U-251 = test: Growth inhibition of human U251 cells after 48 hrs by SRB assay; type: functional; conditions: U-251, 48 h
NCI-H322M = test: Growth inhibition of human NCI-H322M cells after 48 hrs by SRB assay; type: functional
MCF7 [22] = test: Induction of apoptosis in human MCF7 cells assessed as of p21 protein expression at 4 uM by Western blot analysis relative to control; type: functional, cell-based

COc1ccc(C(=O)/C=C/c2c(C(F)(F)F)nc3ccccn23)cc1OC
GI50 [1]: 1650 nM
GI50 (CCRF-CEM): 440 nM
inhibition (MCF7 [2]): Active
inhibition (MCF7 [3]): Active
GI50 [4]: 3790 nM
inhibition (MCF7 [5]): Active
GI50 [6]: 480 nM
GI50 (T47D): 1430 nM
Activity (MCF7 [7]): 1.83%
GI50 (CAKI-1): 2500 nM
GI50 (SR): 440 nM
GI50 (DU-145): 650 nM
GI50 (SNB-19): 1590 nM
GI50 (SN12C): 1910 nM
GI50 (Malme-3M): 6690 nM
Activity (MCF7 [8]): Active
GI50 (HOP-62): 3010 nM
GI50 (K562): 360 nM
GI50 (MDA-MB-468): 1900 nM
GI50 [9]: 3740 nM
GI50 [10]: 3150 nM
GI50 (SK-OV-3): 2490 nM
GI50 (IGROV-1): 440 nM
GI50 (TK-10): 3780 nM
inhibition (MCF7 [11]): Active
GI50 [12]: 950 nM
GI50 (ACHN): 2850 nM
GI50 (COLO 205): 1920 nM
GI50 (SK-MEL-2): 1720 nM
GI50 [13]: 1310 nM
GI50 (NCI-H23): 2370 nM
GI50 (MDA-MB-231): 3060 nM
Activity (MCF7 [14]): Active
GI50 [15]: 2220 nM
GI50 (SK-MEL-5): 1630 nM
GI50 (PC-3): 2730 nM
GI50 (MDA-MB-435): 2040 nM
GI50 (HL-60(TB)): 1520 nM
GI50 (M14): 3630 nM
inhibition (MCF7 [16]): inactive
GI50 (SF-268): 1570 nM
GI50 [17]: 1130 nM
GI50 [18]: 2490 nM
GI50 [19]: 1030 nM
inhibition (MCF7 [20]): Active
GI50 (HT-29): 1480 nM
Activity (MCF7 [21]): Active
GI50 (U-251): 1100 nM
GI50 (NCI-H322M): 3150 nM
Activity (MCF7 [22]): inactive
